Source: the supplement of paper PMC6045584
± gives the standard deviation of the averaged measurements.

Legend:
MDV3100 [1] = compound: T1, CNC(=O)c1ccc(N2C(=S)N(c3ccc(C#N)c(C(F)(F)F)c3)C(=O)C2(C)C)cc1F [MDV3100]; test: area under dose-response curve of surviving fraction (unscaled, Aref=0) (surviving fraction x log10(nM)); higher = more resistant; settings: exposure time: 5 days; dose range 0.5-1000 nM
Procedure, shortened: (§1)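 Inhibitor was applied to tumour cell lines at eight concentrations (0.5 to 1000 nM) for five days in 384-well plates. Luminescence from CellTiter-Glo, scaled to DMSO-only wells, gave surviving fractions in three screens per line, and these were fitted by 3-parameter logistic regression with the drc R package. The area under the curve is an unscaled activity area. Aref was 0, and dose was on a log10 scale.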

SAPACITABINE [2] = compound: T2, CCCCCCCCCCCCCCCC(=O)Nc1ccn([C@@H]2O[C@H](CO)[C@@H](O)[C@@H]2C#N)c(=O)n1 [SAPACITABINE]; test: as above; settings: exposure time: 5 days; dose range 0.5-1000 nM
Procedure, shortened: as §1

CANERTINIB [3] = compound: T3, C=CC(=O)Nc1cc2c(Nc3ccc(F)c(Cl)c3)ncnc2cc1OCCCN1CCOCC1 [CANERTINIB]; test: as above; settings: exposure time: 5 days; dose range 0.5-1000 nM
Procedure, shortened: as §1

[4] = compound: Cn1cc(C2=Nc3cc(NC(=O)C(N)C4CCCCC4)cc4c3C2=CNNC4=O)cn1; test: as above; settings: exposure time: 5 days; dose range 0.5-1000 nM
Procedure, shortened: as §1

TIOGUANINE = compound: Nc1nc2[nH]cnc2c(=S)[nH]1 [TIOGUANINE]; test: as above; settings: exposure time: 5 days; dose range 0.5-1000 nM
Procedure, shortened: as §1

AFATINIB = compound: CN(C)C/C=C/C(=O)Nc1cc2c(Nc3ccc(F)c(Cl)c3)ncnc2cc1O[C@H]1CCOC1 [AFATINIB]; test: as above; settings: exposure time: 5 days; dose range 0.5-1000 nM
Procedure, shortened: as §1

SNX-5422 = compound: CC1(C)CC(=O)c2c(C(F)(F)F)nn(-c3ccc(C(N)=O)c(N[C@H]4CC[C@H](OC(=O)CN)CC4)c3)c2C1 [SNX-5422]; test: as above; settings: exposure time: 5 days; dose range 0.5-1000 nM
Procedure, shortened: as §1

BI-2536 = compound: CC[C@@H]1C(=O)N(C)c2cnc(Nc3ccc(C(=O)NC4CCN(C)CC4)cc3OC)nc2N1C1CCCC1 [BI-2536]; test: as above; settings: exposure time: 5 days; dose range 0.5-1000 nM
Procedure, shortened: as §1

MDV3100 [5] = compound: T1, MDV3100; test: surviving fraction relative to DMSO-only wells; higher = less growth inhibition; settings: exposure time: 5 days
Procedure, shortened: (§2)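 Inhibitors were tested at 0.5, 1, 5, 10, 50, 100, 500 and 1000 nM, applied continuously for five days beginning 24 hours after log-phase tumour cells were seeded at 250–500 per well in 384-well plates. CellTiter-Glo luminescence served as the viability measure, expressed as surviving fraction against the median of DMSO-only wells. Each line, screened three times, was kept only with replicate Pearson r >0.7 and median Z' >0.3.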

SAPACITABINE [6] = compound: T2, SAPACITABINE; test: as above; settings: exposure time: 5 days
Procedure, shortened: as §2

CANERTINIB [7] = compound: T3, CANERTINIB; test: as above; settings: exposure time: 5 days
Procedure, shortened: as §2

[8] = compound: Cn1cc(C2=Nc3cc(NC(=O)C(N)C4CCCCC4)cc4c3C2=CNNC4=O)cn1; test: as above; settings: exposure time: 5 days
Procedure, shortened: as §2

Which “area under dose-response curve” value (MDV3100 [1]) does the source give for CAL120 BREAST here?
Its value is 3.07.

And the “area under dose-response curve” value (SAPACITABINE [2])?
The value was 2.46.

And the “area under dose-response curve” value (CANERTINIB [3])?
Its value is 3.01.

And the “area under dose-response curve” value [4]?
Its value is 2.8.

And the “area under dose-response curve” value (TIOGUANINE)?
The value was 3.05.

What about the “area under dose-response curve” value (AFATINIB) of the same test system?
Its value is 2.87.

And the “area under dose-response curve” value (SNX-5422)?
The value was 1.77.

What about the “area under dose-response curve” value (BI-2536) of the same test system?
Its value is 0.616.

And the surviving fraction (MDV3100 [5]; 0.5 nM)?
The surviving fraction was 0.906 ± 0.066.

And the surviving fraction (MDV3100 [5]; 1 nM)?
The surviving fraction was 0.905 ± 0.025.

What about the surviving fraction (MDV3100 [5]; 5 nM) of the same test system?
Its surviving fraction is 0.931 ± 0.051.

What about the surviving fraction (MDV3100 [5]; 10 nM) of the same test system?
Its surviving fraction is 0.925 ± 0.077.

And the surviving fraction (MDV3100 [5]; 50 nM)?
The surviving fraction was 0.941 ± 0.058.

And the surviving fraction (MDV3100 [5]; 100 nM)?
Its surviving fraction is 0.935 ± 0.042.

And the surviving fraction (MDV3100 [5]; 500 nM)?
The surviving fraction was 0.953 ± 0.059.

And the surviving fraction (MDV3100 [5]; 1000 nM)?
The surviving fraction was 0.955 ± 0.025.

And the surviving fraction (SAPACITABINE [6]; 0.5 nM)?
The surviving fraction was 0.917 ± 0.028.

What about the surviving fraction (SAPACITABINE [6]; 1 nM) of the same test system?
The surviving fraction was 0.901 ± 0.047.

What about the surviving fraction (SAPACITABINE [6]; 5 nM) of the same test system?
The surviving fraction was 0.893 ± 0.081.

And the surviving fraction (SAPACITABINE [6]; 10 nM)?
The surviving fraction was 0.876 ± 0.053.

What about the surviving fraction (SAPACITABINE [6]; 50 nM) of the same test system?
Its surviving fraction is 0.749 ± 0.06.

What about the surviving fraction (SAPACITABINE [6]; 100 nM) of the same test system?
The surviving fraction was 0.631 ± 0.038.

What about the surviving fraction (SAPACITABINE [6]; 500 nM) of the same test system?
The surviving fraction was 0.428 ± 0.01.

And the surviving fraction (SAPACITABINE [6]; 1000 nM)?
Its surviving fraction is 0.3798 ± 0.0035.

And the surviving fraction (CANERTINIB [7]; 0.5 nM)?
The surviving fraction was 0.903 ± 0.055.

And the surviving fraction (CANERTINIB [7]; 1 nM)?
Its surviving fraction is 0.91 ± 0.063.

And the surviving fraction (CANERTINIB [7]; 5 nM)?
The surviving fraction was 0.91 ± 0.08.

What about the surviving fraction (CANERTINIB [7]; 10 nM) of the same test system?
Its surviving fraction is 0.902 ± 0.036.

And the surviving fraction (CANERTINIB [7]; 50 nM)?
The surviving fraction was 0.921 ± 0.087.

What about the surviving fraction (CANERTINIB [7]; 100 nM) of the same test system?
The surviving fraction was 0.928 ± 0.046.

What about the surviving fraction (CANERTINIB [7]; 500 nM) of the same test system?
Its surviving fraction is 0.795 ± 0.092.

What about the surviving fraction (CANERTINIB [7]; 1000 nM) of the same test system?
The surviving fraction was 0.597 ± 0.021.

And the surviving fraction ([8]; 0.5 nM)?
Its surviving fraction is 0.966 ± 0.012.

What about the surviving fraction ([8]; 1 nM) of the same test system?
Its surviving fraction is 1.02 ± 0.019.

What about the surviving fraction ([8]; 5 nM) of the same test system?
The surviving fraction was 1.01 ± 0.013.

What about the surviving fraction ([8]; 10 nM) of the same test system?
Its surviving fraction is 1.01 ± 0.038.
